# System: CD4+ LNC from PLP primed SJL/J mice
# Experiment: In vitro proliferation ([3H]-thymidine) of PLP139-151 restimulated CD4+ LNC from primed SJL/J mice
# Format: cell-based, mouse
# Settings: with Pep-1, PLP 40 μg/ml, 72 h
# Experimental: CD4+ lymph node cells (LNC) isolated from the draining lymph nodes harvested from SJL/J mice 10 days after immunization with PLP139-151 were cultured in 96-well plates at […] in complete RPMI and restimulated with the PLP peptide (40 μg/ml) for 72 h, including a final 16-h pulse with [^3H]-thymidine. […] Separate cultures stimulated with ova (40 μg/ml) served as control for antigen specificity. Irradiated splenocytes from syngenic mice were used as antigen presenting cells (APC). Cultures were harvested onto glass fiber mats using a Skatron harvester (Skatron, Sterling, Va.), and the levels of [^3H]-thymidine incorporation were determined by liquid scintillation counting (Microbeta; Wallac, Turku, Finland). Results were confirmed by replicate experiments. Data are expressed as Δcpm (counts/min incorporated in antigen-stimulated culture-counts/min incorporated by control unstimulated culture).
# Supernatants collected at 24 and 48 h were assessed for specific cytokines using the OptEIA kits (BD Biosciences). Proliferation assays included parallel cultures for 72 h with a final 18-h pulse with [^3H]thymidine measured by liquid scintillation counting (Microbeta, Turku, Finland).
structure (smiles),measurement,value
"C[C@@H]1C[C@H]2[C@@H]3CCC4=CC(=O)C=C[C@]4(C)[C@@]3(F)[C@@H](O)C[C@]2(C)[C@@]1(O)C(=O)CO [dexamethasone, reference compound]",proliferative response (Δcpm),2226+/−327 cpm

# Source: patent US8999937B2, “Glucocorticoid induced leucine zipper mimetics as therapeutic agents in multiple sclerosis” (Indiana University Research and Technology Corporation, priority 2011, dated 2015)
